Reference: ChEMBL document CHEMBL1955780, “In silico scaffold evaluation and solid phase approach to identify new gelatinase inhibitors” (Bioorg Med Chem, 2012)

Columns and labels:
[1] = molecular target: 72 kDa type IV collagenase (Homo sapiens, UniProt P08253); experiment: Inhibition of full length MMP2 using Mca-Pro-Leu-Gly-Leu-Dpa-Ala-Arg-NH2 as substrate preincubated for 1 hr prior substrate addition measured after 3 hrs by spectrofluorimetry
[2] = molecular target: Matrix metalloproteinase-9 (Homo sapiens, UniProt P14780); experiment: Inhibition of MMP9 catalytic domain using Mca-Pro-Leu-Gly-Leu-Dpa-Ala-Arg-NH2 as substrate preincubated for 1 hr prior substrate addition measured after 3 hrs by spectrofluorimetry
Matrix metalloproteinase-9, sequence (P14780 whole entry, the tested form may be a part): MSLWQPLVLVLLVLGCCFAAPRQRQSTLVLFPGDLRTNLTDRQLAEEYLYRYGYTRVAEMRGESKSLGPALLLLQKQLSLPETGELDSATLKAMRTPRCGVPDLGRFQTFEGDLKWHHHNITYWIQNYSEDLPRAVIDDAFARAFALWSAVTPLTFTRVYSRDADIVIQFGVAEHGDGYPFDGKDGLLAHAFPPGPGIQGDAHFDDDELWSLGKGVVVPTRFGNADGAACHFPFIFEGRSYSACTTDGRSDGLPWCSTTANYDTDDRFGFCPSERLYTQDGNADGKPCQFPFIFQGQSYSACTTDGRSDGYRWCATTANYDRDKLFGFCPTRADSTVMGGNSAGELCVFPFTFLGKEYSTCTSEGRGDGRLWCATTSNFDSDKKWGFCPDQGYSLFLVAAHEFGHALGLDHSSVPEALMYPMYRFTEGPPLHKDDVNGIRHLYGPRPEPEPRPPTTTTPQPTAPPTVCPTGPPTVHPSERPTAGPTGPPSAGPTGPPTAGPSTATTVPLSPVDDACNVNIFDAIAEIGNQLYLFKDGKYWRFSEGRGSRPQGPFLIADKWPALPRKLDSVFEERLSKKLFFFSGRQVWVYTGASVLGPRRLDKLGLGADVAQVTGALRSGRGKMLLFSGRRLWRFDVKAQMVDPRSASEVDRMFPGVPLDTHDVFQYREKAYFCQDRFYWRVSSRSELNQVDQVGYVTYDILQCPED

Interstitial collagenase = molecular target: T1, Interstitial collagenase (Homo sapiens, UniProt P03956); experiment: Inhibition of MMP1 catalytic domain using Mca-Pro-Leu-Gly-Leu-Dpa-Ala-Arg-NH2 as substrate preincubated for 1 hr prior substrate addition measured after 3 hrs by spectrofluorimetry
T1 sequence (P03956 whole entry): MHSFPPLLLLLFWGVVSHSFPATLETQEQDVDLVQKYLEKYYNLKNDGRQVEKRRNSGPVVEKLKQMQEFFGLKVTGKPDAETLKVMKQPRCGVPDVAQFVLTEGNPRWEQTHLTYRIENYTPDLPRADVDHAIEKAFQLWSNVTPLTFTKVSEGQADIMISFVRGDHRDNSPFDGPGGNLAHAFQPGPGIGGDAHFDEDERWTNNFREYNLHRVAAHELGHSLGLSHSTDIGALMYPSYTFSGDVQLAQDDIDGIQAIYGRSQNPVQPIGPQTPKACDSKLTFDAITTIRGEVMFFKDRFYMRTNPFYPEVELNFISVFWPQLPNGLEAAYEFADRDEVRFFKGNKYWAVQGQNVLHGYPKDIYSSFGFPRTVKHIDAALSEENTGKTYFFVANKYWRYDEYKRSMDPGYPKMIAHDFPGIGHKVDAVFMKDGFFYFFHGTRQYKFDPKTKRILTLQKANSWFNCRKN

Stromelysin-1 = Stromelysin-1 (Homo sapiens, UniProt P08254); experiment: Inhibition of MMP3 catalytic domain using Mca-Pro-Leu-Gly-Leu-Dpa-Ala-Arg-NH2 as substrate preincubated for 1 hr prior substrate addition measured after 3 hrs by spectrofluorimetry
Stromelysin-1, sequence (P08254 whole entry, the tested form may be a part): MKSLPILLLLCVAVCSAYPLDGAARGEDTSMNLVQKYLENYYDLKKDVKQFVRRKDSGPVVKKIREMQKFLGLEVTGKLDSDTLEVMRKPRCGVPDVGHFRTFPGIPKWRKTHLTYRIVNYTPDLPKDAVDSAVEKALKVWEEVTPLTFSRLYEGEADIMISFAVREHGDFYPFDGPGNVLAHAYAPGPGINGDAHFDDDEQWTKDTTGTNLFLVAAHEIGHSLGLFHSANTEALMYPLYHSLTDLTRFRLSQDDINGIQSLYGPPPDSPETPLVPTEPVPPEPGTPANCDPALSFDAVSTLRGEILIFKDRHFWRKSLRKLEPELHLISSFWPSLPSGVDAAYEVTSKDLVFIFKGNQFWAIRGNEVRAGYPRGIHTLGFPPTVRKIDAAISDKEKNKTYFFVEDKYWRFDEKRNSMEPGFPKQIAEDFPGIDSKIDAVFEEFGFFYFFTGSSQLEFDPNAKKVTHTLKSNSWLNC

Neutrophil collagenase = Neutrophil collagenase (Homo sapiens, UniProt P22894); experiment: Inhibition of MMP8 catalytic domain using Mca-Pro-Leu-Gly-Leu-Dpa-Ala-Arg-NH2 as substrate preincubated for 1 hr prior substrate addition measured after 3 hrs by spectrofluorimetry
Neutrophil collagenase, sequence (P22894 whole entry, the tested form may be a part): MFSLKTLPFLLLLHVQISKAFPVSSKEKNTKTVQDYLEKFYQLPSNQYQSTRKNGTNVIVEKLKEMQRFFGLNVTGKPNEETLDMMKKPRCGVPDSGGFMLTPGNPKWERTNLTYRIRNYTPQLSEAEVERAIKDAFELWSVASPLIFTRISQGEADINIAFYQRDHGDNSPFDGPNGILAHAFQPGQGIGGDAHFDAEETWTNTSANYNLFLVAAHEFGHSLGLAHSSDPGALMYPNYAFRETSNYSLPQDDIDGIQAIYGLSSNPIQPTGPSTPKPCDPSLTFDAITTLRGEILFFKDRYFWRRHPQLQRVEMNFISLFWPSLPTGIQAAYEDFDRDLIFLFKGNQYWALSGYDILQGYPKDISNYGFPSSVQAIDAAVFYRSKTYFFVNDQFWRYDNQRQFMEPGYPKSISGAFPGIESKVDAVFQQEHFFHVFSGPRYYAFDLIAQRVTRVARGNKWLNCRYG

[3] = molecular target: Macrophage metalloelastase (Homo sapiens, UniProt P39900); experiment: Inhibition of MMP12 catalytic domain using Mca-Pro-Leu-Gly-Leu-Dpa-Ala-Arg-NH2 as substrate preincubated for 1 hr prior substrate addition measured after 3 hrs by spectrofluorimetry
Macrophage metalloelastase, sequence (P39900 whole entry, the tested form may be a part): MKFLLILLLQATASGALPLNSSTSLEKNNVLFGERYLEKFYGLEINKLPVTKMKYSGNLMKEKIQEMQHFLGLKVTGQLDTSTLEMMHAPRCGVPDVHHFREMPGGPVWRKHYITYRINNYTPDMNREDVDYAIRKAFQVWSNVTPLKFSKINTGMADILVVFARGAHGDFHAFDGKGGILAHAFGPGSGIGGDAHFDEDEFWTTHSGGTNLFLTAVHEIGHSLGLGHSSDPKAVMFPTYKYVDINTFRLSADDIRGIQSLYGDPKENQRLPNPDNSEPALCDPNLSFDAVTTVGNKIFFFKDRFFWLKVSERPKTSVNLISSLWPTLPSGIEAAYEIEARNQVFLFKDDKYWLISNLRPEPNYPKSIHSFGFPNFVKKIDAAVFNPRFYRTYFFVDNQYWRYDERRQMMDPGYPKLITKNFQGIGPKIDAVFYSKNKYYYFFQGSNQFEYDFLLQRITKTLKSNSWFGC

[4] = molecular target: Matrix metalloproteinase-14 (Homo sapiens, UniProt P50281); experiment: Inhibition of MMP14 catalytic domain using Mca-Pro-Leu-Gly-Leu-Dpa-Ala-Arg-NH2 as substrate preincubated for 1 hr prior substrate addition measured after 3 hrs by spectrofluorimetry

72 kDa type IV collagenase, sequence (P08253 whole entry, the tested form may be a part): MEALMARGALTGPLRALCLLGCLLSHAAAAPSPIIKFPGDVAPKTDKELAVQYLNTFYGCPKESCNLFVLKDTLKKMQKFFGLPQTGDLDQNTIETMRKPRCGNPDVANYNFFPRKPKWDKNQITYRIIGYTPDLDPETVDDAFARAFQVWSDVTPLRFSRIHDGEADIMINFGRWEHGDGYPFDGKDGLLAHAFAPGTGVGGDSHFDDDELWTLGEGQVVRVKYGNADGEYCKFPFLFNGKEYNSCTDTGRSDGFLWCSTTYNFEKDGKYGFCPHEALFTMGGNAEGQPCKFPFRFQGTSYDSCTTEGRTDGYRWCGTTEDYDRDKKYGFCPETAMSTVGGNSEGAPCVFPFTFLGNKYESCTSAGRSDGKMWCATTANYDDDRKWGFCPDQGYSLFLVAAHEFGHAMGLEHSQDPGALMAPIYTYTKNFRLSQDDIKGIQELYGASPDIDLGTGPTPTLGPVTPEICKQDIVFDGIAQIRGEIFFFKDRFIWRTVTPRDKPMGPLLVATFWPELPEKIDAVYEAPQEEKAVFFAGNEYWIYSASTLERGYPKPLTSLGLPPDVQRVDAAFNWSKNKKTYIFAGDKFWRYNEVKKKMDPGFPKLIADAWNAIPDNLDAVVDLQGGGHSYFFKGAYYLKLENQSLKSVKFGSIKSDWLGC

Compound | IC50 [1] | IC50 [2] | also measured
CCCCCc1ccc(C(=O)Nc2ccc(S(=O)(=O)N(CCN3CCOCC3)[C@@H](C(=O)NO)C(C)C)cc2)cc1 | < 0.0001 µM |  | 
O=C(NO)[C@H]1CCC(=O)N1Cc1ccc(-c2ccccc2)cc1 | 3 µM | 30 µM | 
O=C(O)[C@H]1CCC(=O)N1Cc1ccc(-c2ccccc2)cc1 | 290 µM |  | 
NC(=O)[C@H]1CCC(=O)N1Cc1ccc(-c2ccccc2)cc1 | > 500 µM |  | 
O=C(NO)[C@H]1CCC(=O)N1Cc1ccccc1Cl | > 500 µM | > 500 µM | 
O=C(O)[C@H]1CCC(=O)N1Cc1ccccc1Cl | > 500 µM |  | 
NC(=O)[C@H]1CCC(=O)N1Cc1ccccc1Cl | > 500 µM |  | 
O=C(NO)[C@H]1CCC(=O)N1Cc1ccc(Cl)cc1 | 400 µM | 430 µM | 
O=C(O)[C@H]1CCC(=O)N1Cc1ccc(Cl)cc1 | > 500 µM |  | 
NC(=O)[C@H]1CCC(=O)N1Cc1ccc(Cl)cc1 | > 500 µM |  | 
O=C(NO)[C@@H]1CCC(=O)N1Cc1ccc(-c2ccccc2)cc1 | 9 µM | 144 µM | 
O=C(O)[C@@H]1CCC(=O)N1Cc1ccc(-c2ccccc2)cc1 | 340 µM |  | 
NC(=O)[C@@H]1CCC(=O)N1Cc1ccc(-c2ccccc2)cc1 | > 500 µM |  | 
O=C(NO)[C@@H]1CCC(=O)N1Cc1ccccc1Cl | > 500 µM |  | 
NC(=O)[C@@H]1CCC(=O)N1Cc1ccccc1Cl | > 500 µM |  | 
O=C(NO)[C@@H]1CCC(=O)N1Cc1ccc(Cl)cc1 | > 500 µM |  | 
O=C(O)[C@@H]1CCC(=O)N1Cc1ccc(Cl)cc1 | 383 µM |  | 

Compound | IC50 [1] | IC50 [2] | also measured
NC(=O)[C@@H]1CCC(=O)N1Cc1ccc(Cl)cc1 | > 500 µM |  | 
O=C(NO)[C@@H]1CCCN1Cc1ccc(-c2ccccc2)cc1 | > 500 µM |  | 
O=C(NO)[C@@H]1CSCN1Cc1ccc(-c2ccccc2)cc1 | 330 µM |  | 
O=C(NO)[C@@H]1C[C@@H](O)CN1Cc1ccc(-c2ccccc2)cc1 | > 500 µM |  | 
O=C(NO)[C@@H]1CSC(=O)N1Cc1ccc(-c2ccccc2)cc1 | 6.8 µM | 47 µM | 
O=C(NO)[C@@H]1CCC(=O)N1S(=O)(=O)c1ccc(-c2ccccc2)cc1 | 1.7 µM | 1.9 µM | 
O=C(NO)[C@@H]1CCCN1S(=O)(=O)c1ccc(-c2ccccc2)cc1 | 4 µM | 76 µM | 
O=C(NO)[C@@H]1CSCN1S(=O)(=O)c1ccc(-c2ccccc2)cc1 | 0.2 µM | 0.23 µM | 
O=C(NO)[C@@H]1CSCN1S(=O)(=O)c1ccc2ccccc2c1 | 31 µM | > 50 µM | 
O=C(NO)[C@@H]1CSCN1S(=O)(=O)c1cccc2cccnc12 | 0.71 µM | 0.56 µM | 
COc1ccc(Oc2ccc(S(=O)(=O)N3CSC[C@H]3C(=O)NO)cc2)cc1 | 0.009 µM | 0.002 µM | 
O=C(NO)[C@@H]1CSCN1S(=O)(=O)c1ccc(Oc2ccc(Cl)cc2)cc1 | 0.013 µM | 0.016 µM | IC50 (Interstitial collagenase): 1 µM; IC50 (Stromelysin-1): 0.16 µM
O=C(NO)[C@@H]1CSCN1S(=O)(=O)c1ccc(Oc2ccc(F)cc2)cc1 | 0.01 µM | 0.005 µM | IC50 (Interstitial collagenase): > 50 µM; IC50 (Stromelysin-1): 0.7 µM
O=C(NO)[C@@H]1C[S+]([O-])CN1S(=O)(=O)c1ccc(-c2ccccc2)cc1 (some centres not stated) | 0.009 µM | 0.6 µM | IC50 (Interstitial collagenase): 4 µM; IC50 (Stromelysin-1): 2 µM; IC50 (Neutrophil collagenase): 0.4 µM; IC50 [3]: 2.5 µM; IC50 [4]: 0.16 µM
O=C(NO)[C@@H]1CS(=O)(=O)CN1S(=O)(=O)c1ccc(-c2ccccc2)cc1 | 0.053 µM | 0.48 µM | IC50 (Interstitial collagenase): 2.5 µM; IC50 (Stromelysin-1): 4 µM; IC50 (Neutrophil collagenase): 0.1 µM; IC50 [3]: 0.5 µM; IC50 [4]: 3.8 µM
O=C(NO)[C@@H]1CS(=O)(=O)CN1S(=O)(=O)c1ccc(Oc2ccc(Cl)cc2)cc1 | 0.0008 µM | 0.0005 µM | IC50 (Neutrophil collagenase): 0.004 µM; IC50 [3]: 0.019 µM; IC50 [4]: 0.005 µM
O=C(O)[C@@H]1CCC(=O)N1Cc1ccccc1Cl | 315 µM |  | 
